The values below come from patent US20240368181A1, “QUINOXALINE DERIVATIVES AND USES THEREOF” (Black Diamond Therapeutics, Inc., priority 2021, published 2024).

Bounds are passed on as bounds.

Common to all, as to format: cell-based
Experiment [1] relates to UM-UC-14 (FGFR3-S249C) cells. Kind of experiment: Cell proliferation assay (CellTiterGlo), UM-UC-14 cells. To be noted: UMUC14, 72 h, inhibition of cell growth, intracellular ATP (CellTiterGlo). The text has this:
(§1) The following is a non-limiting example that describes a cell proliferation assay used to determine the biological activity of the compounds of the present disclosure. More specifically, the assay as used to assess the ability of the compounds to inhibit cell proliferation.
(§2) Briefly, SNU-16 (FGFR2-amplification) cells, were resuspended at 18,520c/ml mL in RPMI containing 10% Heat Inactivated FBS, 1% L-glutamine and dispensed in duplicate (463c/well) into 384 well plates. UM-UC-14 (FGFR3-S249C) cells were resuspended at 40.000c/ml mL in RPMI containing 10% Heat Inactivated FBS, 1% L-glutamine and dispensed in duplicate (1000c/well) into 384 well plates. DMS-114 (FGFR1 overexpression) cells and were resuspended at 40,000c/ml mL in RPMI containing 10% Heat Inactivated FBS, 1% L-glutamine and dispensed in duplicate (1000c/well) into 384 well plates. RT-112 (FGFR3-Tacc3 fusion) cells were resuspended at 40,000c/ml mL in RPMI containing 10% Heat Inactivated FBS, 1% L-glutamine and dispensed in duplicate (1000c/well) into 384 well plates. To determine the effect of the compounds of the present disclosure on cell proliferation, SNU-16, UM-UC-14, DMS-114 and RT112 cells were incubated for 72 hours in the presence of vehicle control (DMSO) or a compound of the present disclosure at varying concentrations. Inhibition of cell growth was subsequently determined by luminescent quantification (Envision by Perkin Elmer) of intracellular ATP content using CellTiterGlo (Promega), according to the protocol provided by the manufacturer. To determine the IC50 values, the vehicle-treated cells were normalized as viable cells and analyzed using the CDD Vault software (Collaborative Drug Discovery, Burlingame, CA).
For orientation: Cellular ATP, detected with luciferase, serves as a proxy for viable cell number.

Experiment [2] deals with SNU-16 (FGFR2-amplification) cells. The experiment is described as follows: Cell proliferation assay (CellTiterGlo), SNU-16 cells. To be noted: Homo sapiens, SNU-16, 72 h, inhibition of cell growth, intracellular ATP (CellTiterGlo).
Description: as §1, §2

In experiment [3] the test system is RT-112 (FGFR3-Tacc3 fusion) cells. The experiment is described as follows: Cell proliferation assay (CellTiterGlo), RT-112 cells. To be noted: Homo sapiens, RT-112, 72 h, RT112 cells, inhibition of cell growth, intracellular ATP (CellTiterGlo).
Description: as §1, §2

In experiment [4] the test system is DMS-114 (FGFR1 overexpression) cells. The experiment is described as follows: Cell proliferation assay (CellTiterGlo), DMS-114 cells. To be noted: Homo sapiens, 72 hours, inhibition of cell growth, intracellular ATP (CellTiterGlo).
Description: as §1, §2

In general, IC50 refers to the midpoint of a concentration-inhibition curve. Low values mean greater potency, high ones weaker potency. As to `Cc1nc2ccc(Oc3ccc4ncc(-c5cnn(C6CCC(F)(F)CC6)c5)nc4c3Cl)cc2[nH]1` [Compound 66], the IC50 was 100 to 400 nM in experiment [1], 100 to 400 nM in experiment [2], 100 to 400 nM in experiment [3] and no less than 400 nM in experiment [4].
In the case of `Cc1nc2ccc(Oc3ccc4ncc(-c5cnn(CC6(O)CC6)c5)nc4c3Cl)cc2[nH]1` [Compound 67], the IC50 in experiment [1] is 20 to 100 nM; in experiment [2], 20 to 100 nM; in experiment [3], 20 to 100 nM; in experiment [4], no less than 400 nM.
As to `Cc1nc2ccc(Oc3ccc4ncc(-c5cnn(CC6CC(F)(F)C6)c5)nc4c3Cl)c(F)c2[nH]1` [Compound 68], the IC50 was 20 to 100 nM in experiment [1], 20 to 100 nM in experiment [2], 20 to 100 nM in experiment [3] and no less than 400 nM in experiment [4].
